US20110218143A1, “COMPOSITIONS AND METHODS FOR TISSUE REPAIR” (UNIVERSITY OF FLORIDA RESEARCH FOUNDATION, priority 2007, published 2011)
Entries after “also recorded” stand apart in the source; their conditions may differ.

Assays:
Assay type in all cases: in vivo, C57BL6/J mice
[1] = tested on: stem cell populations in bone marrow (cd34+, cd45+, Sca-1+ cells); experiment: FACS of cells expressing stem cell markers CD34, CD45, Sca-1 in bone marrow samples
Protocol: (§1) Mice received either a placebo (PBS) or oridonin (3.0 mg/kg) by intraperitoneal injection.

[2] = tested on: stem cell populations in blood (cd34+, cd45+, Sca-1+ cells); experiment: FACS of cells expressing stem cell markers CD34, CD45, Sca-1 in blood samples
Protocol: Mice received either a placebo or triptolide (400 μg/kg) by intraperitoneal injection.
Celastrol analogs administered included dihydrocelastrol, dihydrocelastrol diacetate, and pristimerol (dihydropristimerin). Mice received either a placebo or a celastrol analog (3.0 mg/kg) by intraperitoneal injection.
as §1

[3] = tested on: cytokine production in mouse blood; experiment: Cytokine/chemokine levels in blood serum (Millipore 21-Plex, Luminex)
Protocol: Mice received either a placebo, celastrol (3.0 mg/kg), or 17-AAG (10 mg/kg) by intraperitoneal injection. Blood samples were taken from all groups of mice at 0, 1, 3, 6, 24, 48, and 72 hours after administration of the placebo, celastrol, or 17-AAG. The blood samples were analyzed for cytokine production, including the production of granulocyte-macrophage colony-stimulating factor (GM-CSF), interferon-gamma (IFN-γ), interleukin-10 (IL-10), interleukin-12 subunit beta (IL-12p40), interleukin-12 heterodimer (IL-12p70), interleukin-12 homodimer (IL-12p80), vascular endothelial growth factor (VEGF), tumor necrosis factor-alpha (TNF-α), keratinocyte derived chemokine (KC), RANTES (Regulated upon Activation, Normal T-cell Expressed, and Secreted; CCL5), monocyte chemotactic protein-1 (MCP 1), macrophage inflammatory protein (MIP1β; CCL4), interleukin-4 (IL-4), interleukin-3 (IL-3), interleukin-2 (IL-2), interleukin-1 beta (IL-1β), interleukin-1 alpha (IL-1α), interleukin-9 (IL-9), interleukin-13 (IL-13), interleukin-17 (IL-17), interleukin-6 (IL-6), and interleukin-5 (IL-5). Blood serum was analyzed using a commercially available kit (e.g., Mouse cytokine/chemokine panel: 21-Plex; Millipore). Blood serum (50 μl) was assayed in duplicate using a commercially available cytokine/chemokine detection kit from Millipore following the protocol given with the product information. The final measurement was performed using a commercially available detector (e.g., computer-operated Luminex 100 IS system) and the results were expressed as pg/ml blood serum sample. Levels of cytokines in blood were quantitated as a concentration of the total volume of the sample.

[4] = triptolide 400 μg/kg i.p., 24 hours post treatment
[5] = triptolide 400 μg/kg i.p., 48 hours post treatment
[6] = triptolide 400 μg/kg i.p., 72 hours post treatment
[7] = celastrol analog 3.0 mg/kg i.p., 24 hours post treatment
[8] = celastrol analog 3.0 mg/kg i.p., 24 hours post treatment (so in the source)
[9] = i.p. celastrol 3.0 mg/kg or 17-AAG 10 mg/kg, 72 hour time course
[10] = i.p. celastrol 3.0 mg/kg or 17-AAG 10 mg/kg, sampled 0-72 h
[11] = i.p. celastrol 3.0 mg/kg or 17-AAG 10 mg/kg, sampled 0-72 h, vs placebo control

CC(C)[C@]12O[C@H]1[C@@H]1O[C@]13[C@]1(O[C@H]1C[C@H]1C4=C(CC[C@@]13C)C(=O)OC4)[C@@H]2O [triptolide]
cd34+ cells, percent of the population of bone marrow cells [1, 4]: ~0.8% | fold increase in the proportion of Sca-1 stem cells in bone marrow vs untreated mice [1, 4]: approximately 15 fold | fold increase of percentage of cd34+ cells in bone marrow over control [1, 4]: ~16 fold | fold increase of percentage of cd45+ cells in bone marrow vs untreated control [1, 4]: about 3 fold | sca-1+ stem cells, percent of bone marrow cell population [1, 4]: 0.75% | cd34+ cells, percent of bone marrow cells [1, 5]: 0.3% | cd45+ cells, percent in bone marrow [1, 5]: about 0.07% | fold increase of percentage of cd34+ cells in bone marrow compared to control mice [1, 5]: 6 fold | sca-1+ cells, percent of bone marrow cell population [1, 5]: 0.25% | CD34 cells, percent in bone marrow [1, 6]: 0.65% | Sca-1+ cells, percent in bone marrow [1, 6]: about 0.5% | cd45+ cells, percent in bone marrow [1, 6]: ~0.12% | CD34-expressing cells, percent of the population of blood cells [2, 4]: ~1% | Sca-1+ cells, percent of the population of blood cells [2, 4]: ~1% | Sca-1+ cells, percent of cells in blood [2, 5]: ~2% | cd34+ cells, percent of cells in blood [2, 5]: ~2% | cd45+ cells, percent of the cells in blood [2, 5]: about 0.2% | Sca-1+ cells, percent of cells in blood [2, 6]: ~3% | cd34+ cells, percent of cells in blood [2, 6]: about 3%

Cc1c(O)c(O)cc2c1CC=C1[C@@]2(C)CC[C@@]2(C)[C@@H]3C[C@](C)(C(=O)O)CC[C@]3(C)CC[C@]12C [dihydrocelastrol]
Sca-1+ cells, percent of the population of bone marrow cells [1, 7]: 0.14% | cd34+ cells, percent of the population of bone marrow cells [1, 7]: 0.15% | cd45+ cells, percent of the population of bone marrow cells [1, 7]: 0.04% | change of percentage of cd45+ cells in bone marrow compared to untreated control [1, 7]: slight increase | fold increase of percentage of Sca-1+ cells in bone marrow over control [1, 7]: ~3 fold | fold increase of percentage of cd34+ cells in bone marrow over control [1, 7]: ~3 fold | Sca-1+ cells, percent of the population of blood cells [2, 8]: 0.4% | cd34+ cells, percent of the population of blood cells [2, 8]: approximately 0.6% | cd45+ cells, percent of the population of blood cells [2, 8]: about 0.19% | fold increase of percentage of Sca-1+ cells in blood over control [2, 8]: ~10 fold | fold increase of percentage of cd34+ cells in blood over control [2, 8]: ~4 fold | fold increase of percentage of cd45+ cells in blood over control [2, 8]: ~10 fold

C=CCNC1=C2C[C@@H](C)C[C@H](OC)[C@H](O)[C@@H](C)/C=C(\C)[C@H](OC(N)=O)[C@@H](OC)/C=C\C=C(/C)C(=O)NC(=CC1=O)C2=O [Formula 17-AAG, 17-allylamino-17-demethoxygeldanamycin]
level of TNF-α compared to placebo control ([3]; 17-AAG 10 mg/kg i.p., by 24 hours post treatment): declined below levels seen in the placebo control | level of MCP1 compared to placebo control ([3]; 17-AAG 10 mg/kg i.p., over the course of the experiment): not significantly different | level of IL-17 compared to placebo control ([3]; i.p. celastrol 3.0 mg/kg (throughout 72 hours) or 17-AAG 10 mg/kg (up to 48 hours)): consistently high | level of IFN-γ compared to placebo control [3, 9]: remained elevated up to 72 hours | level of IL-1β compared to placebo control [3, 9]: remained elevated up to 72 hours | level of IL-3 compared to placebo control [3, 9]: remained elevated up to 72 hours | level of IL-4 compared to placebo control [3, 9]: remained elevated up to 72 hours | level of IL-5 compared to placebo control [3, 9]: remained elevated up to 72 hours | level of IL-10 compared to placebo control [3, 9]: remained elevated up to 72 hours; also recorded: had risen again by 72 hours | level of IL-12p40 compared to placebo control [3, 9]: elevated again at 24 hours | level of IL-12p70 compared to placebo control [3, 9]: remained elevated up to 72 hours | level of IL-12p80 compared to placebo control [3, 9]: remained elevated up to 72 hours | time by which GM-CSF (elevated pre treatment) declined to placebo control levels [3, 10]: ≤ 6 h | time by which IL-1α returned to levels seen in the placebo control [3, 10]: ≤ 24 h | time by which IL-2 returned to levels seen in the placebo control [3, 10]: ≤ 6 h | time by which IL-6 returned to levels seen in the placebo control [3, 10]: ≤ 24 h | time by which IL-9 (elevated pre treatment) declined to placebo control levels [3, 10]: ≤ 6 h | time by which IL-13 returned to levels seen in the placebo control [3, 10]: ≤ 6 h | time by which KC returned to levels seen in the placebo control [3, 10]: ≤ 24 h | time by which MIP1β returned or declined to placebo control levels [3, 10]: ≤ 6 h | time by which RANTES returned to levels seen in the placebo control [3, 10]: up to 72 hours | time by which VEGF returned to levels seen in the placebo control [3, 10]: ≤ 6 h | time of peak level of IFN-γ post treatment [3, 11]: around 24 hours | time of peak level of IL-1α post treatment [3, 11]: around 6 hours | time of peak level of IL-1β post treatment [3, 11]: around 24 hours | time of peak level of IL-2 post treatment [3, 11]: around 3 hours | time of peak level of IL-3 post treatment [3, 11]: around 24 hours | time of peak level of IL-4 post treatment [3, 11]: around 24 hours | time of peak level of IL-5 post treatment [3, 11]: around 24 hours | time of peak level of IL-6 post treatment [3, 11]: around 6 hours | time of peak level of IL-10 post treatment [3, 11]: around 24 hours | time of peak level of IL-12p70 post treatment [3, 11]: around 24 hours | time of peak level of IL-12p80 post treatment [3, 11]: around 24 hours | time of peak level of IL-13 post treatment [3, 11]: around 3 hours | time of peak level of KC post treatment [3, 11]: around 6 hours | time of peak level of MCP1 post treatment [3, 11]: around 24 hours | time of peak level of MIP1β post treatment [3, 11]: around 3 hours | time of peak level of RANTES post treatment [3, 11]: around 48 hours | time of peak level of TNF-α post treatment [3, 11]: around 3 hours | time of peak level of VEGF post treatment [3, 11]: around 3 hours
